In ChEMBL document CHEMBL4145534, “Computer-aided insights into receptor-ligand interaction for novel 5-arylhydantoin derivatives as serotonin 5-HT7 receptor agents with antidepressant activity” (Eur J Med Chem, 2018):

Legend:
D(2) dopamine receptor = D(2) dopamine receptor (Homo sapiens, UniProt P14416); assay: Displacement of [3H]-raclopride from human D2L receptor expressed in HEK293 cell membranes after 1 hr by Microbeta scintillation counting method
[1] = molecular target: T1, 5-hydroxytryptamine receptor 1A (Homo sapiens, UniProt P08908); assay: Displacement of [3H]-8-OH-DPAT from human 5HT1AR expressed in HEK293 cell membranes after 1 hr by Microbeta scintillation counting method
T1 sequence (P08908 whole entry): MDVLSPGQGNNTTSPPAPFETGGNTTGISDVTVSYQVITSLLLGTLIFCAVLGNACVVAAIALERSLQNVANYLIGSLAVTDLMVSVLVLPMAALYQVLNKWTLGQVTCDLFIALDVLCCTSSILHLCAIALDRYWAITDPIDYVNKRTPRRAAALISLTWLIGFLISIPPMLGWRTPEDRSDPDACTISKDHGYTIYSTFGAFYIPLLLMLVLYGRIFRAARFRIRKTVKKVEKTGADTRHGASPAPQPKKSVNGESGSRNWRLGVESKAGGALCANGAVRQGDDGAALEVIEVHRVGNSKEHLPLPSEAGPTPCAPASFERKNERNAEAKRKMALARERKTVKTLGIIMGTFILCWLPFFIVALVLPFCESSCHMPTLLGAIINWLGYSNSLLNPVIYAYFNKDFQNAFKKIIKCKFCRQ

[2] = molecular target: 5-hydroxytryptamine receptor 7 (Homo sapiens, UniProt P34969); assay: Displacement of [3H]-5-CT from human 5HT7BR expressed in HEK293 cell membranes after 1 hr by Microbeta scintillation counting method
[3] = molecular target: T2, Adrenergic receptor alpha-2 (Rattus norvegicus, UniProt P22086+P19328+P22909); assay: Displacement of [3H]-clonidine from alpha2-adrenergic receptor in rat brain cortex after 30 mins by Microbeta scintillation counting method
T2 sequence (P22086 whole entry): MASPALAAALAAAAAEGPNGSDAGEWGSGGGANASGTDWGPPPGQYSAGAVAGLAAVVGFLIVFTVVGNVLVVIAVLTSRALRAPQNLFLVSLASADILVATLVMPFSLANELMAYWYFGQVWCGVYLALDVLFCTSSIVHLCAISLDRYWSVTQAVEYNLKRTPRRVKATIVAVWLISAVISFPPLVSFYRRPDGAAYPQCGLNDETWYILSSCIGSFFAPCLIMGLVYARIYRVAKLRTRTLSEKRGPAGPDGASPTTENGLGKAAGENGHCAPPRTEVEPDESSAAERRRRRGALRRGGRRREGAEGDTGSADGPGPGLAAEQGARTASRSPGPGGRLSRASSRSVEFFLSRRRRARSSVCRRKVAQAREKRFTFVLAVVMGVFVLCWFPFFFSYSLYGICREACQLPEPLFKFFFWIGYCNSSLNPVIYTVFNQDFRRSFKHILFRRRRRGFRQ
T2 sequence (P19328 whole entry): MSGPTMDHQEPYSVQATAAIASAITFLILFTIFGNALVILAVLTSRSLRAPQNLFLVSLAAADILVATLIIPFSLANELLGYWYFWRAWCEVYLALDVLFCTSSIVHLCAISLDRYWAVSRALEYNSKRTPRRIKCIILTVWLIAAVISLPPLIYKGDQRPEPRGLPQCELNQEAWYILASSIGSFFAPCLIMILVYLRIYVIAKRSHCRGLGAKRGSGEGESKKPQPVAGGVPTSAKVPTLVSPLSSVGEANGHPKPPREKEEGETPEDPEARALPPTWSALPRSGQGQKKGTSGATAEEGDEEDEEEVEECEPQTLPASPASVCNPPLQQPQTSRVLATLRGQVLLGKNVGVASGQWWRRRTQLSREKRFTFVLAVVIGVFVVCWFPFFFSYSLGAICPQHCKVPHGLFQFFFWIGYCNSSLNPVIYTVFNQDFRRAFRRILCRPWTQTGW
T2 sequence (P22909 whole entry): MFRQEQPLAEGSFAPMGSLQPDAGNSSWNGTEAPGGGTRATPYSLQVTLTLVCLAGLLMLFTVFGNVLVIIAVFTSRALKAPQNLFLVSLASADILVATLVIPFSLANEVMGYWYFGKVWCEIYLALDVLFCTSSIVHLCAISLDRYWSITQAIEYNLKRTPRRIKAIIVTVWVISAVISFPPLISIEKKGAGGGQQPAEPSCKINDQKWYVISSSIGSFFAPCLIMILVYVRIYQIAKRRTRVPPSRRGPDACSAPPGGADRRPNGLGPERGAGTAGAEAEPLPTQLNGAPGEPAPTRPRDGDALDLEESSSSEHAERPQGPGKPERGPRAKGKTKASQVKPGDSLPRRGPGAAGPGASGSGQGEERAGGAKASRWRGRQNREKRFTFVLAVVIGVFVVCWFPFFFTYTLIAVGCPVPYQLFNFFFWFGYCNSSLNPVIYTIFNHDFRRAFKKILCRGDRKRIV

[4] = molecular target: Beta-1 adrenergic receptor (Rattus norvegicus, UniProt P18090); assay: Displacement of [3H]-CGP-12177 from beta1-adrenergic receptor in rat brain cortex after 1 hr by Microbeta scintillation counting method
Beta-1 adrenergic receptor, sequence (P18090 whole entry): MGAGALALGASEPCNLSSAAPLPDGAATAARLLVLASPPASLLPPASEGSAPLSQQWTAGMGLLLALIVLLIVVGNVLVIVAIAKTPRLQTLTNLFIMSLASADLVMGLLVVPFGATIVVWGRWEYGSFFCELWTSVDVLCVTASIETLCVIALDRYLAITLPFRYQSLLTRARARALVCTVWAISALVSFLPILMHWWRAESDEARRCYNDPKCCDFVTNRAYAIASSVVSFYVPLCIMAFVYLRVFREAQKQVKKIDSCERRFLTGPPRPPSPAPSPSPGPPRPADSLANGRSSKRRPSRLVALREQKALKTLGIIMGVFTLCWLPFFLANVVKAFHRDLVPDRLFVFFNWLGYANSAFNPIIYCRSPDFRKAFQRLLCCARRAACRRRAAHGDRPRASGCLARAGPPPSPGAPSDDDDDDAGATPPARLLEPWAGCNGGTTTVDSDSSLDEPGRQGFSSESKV

5-hydroxytryptamine receptor 7, sequence (P34969 whole entry): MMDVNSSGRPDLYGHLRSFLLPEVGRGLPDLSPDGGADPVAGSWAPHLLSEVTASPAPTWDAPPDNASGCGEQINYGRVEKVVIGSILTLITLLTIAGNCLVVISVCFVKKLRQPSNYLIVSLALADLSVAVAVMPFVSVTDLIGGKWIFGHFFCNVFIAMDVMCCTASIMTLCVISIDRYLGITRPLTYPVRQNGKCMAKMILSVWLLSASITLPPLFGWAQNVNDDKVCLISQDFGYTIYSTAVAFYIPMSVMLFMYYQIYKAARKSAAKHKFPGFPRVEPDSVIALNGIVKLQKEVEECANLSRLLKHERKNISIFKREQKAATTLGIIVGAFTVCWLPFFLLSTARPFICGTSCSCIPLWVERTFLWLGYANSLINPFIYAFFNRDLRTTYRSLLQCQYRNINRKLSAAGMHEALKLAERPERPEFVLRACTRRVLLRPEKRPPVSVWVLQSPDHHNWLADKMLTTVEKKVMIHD
D(2) dopamine receptor, sequence (P14416 whole entry): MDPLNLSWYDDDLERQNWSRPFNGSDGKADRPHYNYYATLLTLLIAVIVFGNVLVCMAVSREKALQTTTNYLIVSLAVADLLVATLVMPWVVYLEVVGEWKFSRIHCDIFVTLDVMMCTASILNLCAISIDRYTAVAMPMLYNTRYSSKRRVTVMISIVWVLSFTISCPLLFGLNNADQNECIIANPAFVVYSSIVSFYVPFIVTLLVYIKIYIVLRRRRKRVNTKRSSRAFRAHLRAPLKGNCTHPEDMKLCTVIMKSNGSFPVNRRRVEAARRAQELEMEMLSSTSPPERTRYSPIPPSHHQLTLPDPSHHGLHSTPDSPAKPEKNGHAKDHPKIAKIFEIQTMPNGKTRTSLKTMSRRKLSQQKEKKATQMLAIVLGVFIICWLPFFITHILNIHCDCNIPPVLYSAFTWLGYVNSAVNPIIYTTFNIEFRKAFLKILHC

| SMILES | Ki (D(2) dopamine receptor) | Ki [1] | Ki [2] | Ki [3] | Ki [4] |
| --- | --- | --- | --- | --- | --- |
| CC1(c2ccc(Br)cc2)NC(=O)N(CC(O)CN2CCN(c3ccccc3C#N)CC2)C1=O.Cl (racemic) | 506 nM | 140 nM | 7 nM | > 5 µM | > 10 µM |
| COc1ccccc1N1CCN(CC(O)CN2C(=O)NC(C)(c3ccc(Br)cc3)C2=O)CC1.Cl (racemic) | 267 nM | 85 nM | 10 nM | > 5 µM | > 10 µM |
| CC1(c2ccc(Cl)cc2)NC(=O)N(CC(O)CN2CCN(c3ccccc3C#N)CC2)C1=O.Cl (racemic) | 1280 nM | 305 nM | 9 nM | > 10 µM | > 10 µM |
